Laboratory results reported in ChEMBL document CHEMBL4312022, “Design, synthesis, and biological evaluation of ligustrazine - betulin amino-acid/dipeptide derivatives as anti-tumor agents” (Eur J Med Chem, 2020).
pIC50: −log10 of the molar value. Activity calls are given as the source filed them. No cut-off for these calls is given here.

Columns and labels:
BGC-823 = assay: Antiproliferative activity against human BGC823 cells assessed as reduction in cell viability after 72 hrs by MTT assay; type: functional, cell-based; settings: BGC-823, 72 h
HepG2 [1] = assay: Induction of apoptosis in human HepG2 cells assessed as late apoptotic cells at 4 uM after 24 hrs by AnnexinV-FITC/PI-staining based flow cytometry (reference value: 4.5%); type: functional
HepG2 [2] = assay: Induction of apoptosis in human HepG2 cells assessed as reduction in number of cells up to 8 uM after 72 hrs by DAPI-staining based fluorescence microscopic analysis; type: functional, cell-based
HepG2 [3] = assay: Induction of apoptosis in human HepG2 cells assessed as early apoptotic cells at 12 uM after 24 hrs by AnnexinV-FITC/PI-staining based flow cytometry (reference value: 0.5%); type: functional
HepG2 [4] = assay: Induction of cell cycle arrest in human HepG2 cells assessed as accumulation at S phase at 2 uM after 72 hrs by PI-staining based flow cytometry (reference value: 13.9%); type: functional
HepG2 [5] = assay: Induction of apoptosis in human HepG2 cells assessed as early apoptotic cells at 8 uM after 24 hrs by AnnexinV-FITC/PI-staining based flow cytometry (reference value: 0.5%); type: functional
HepG2 [6] = assay: Induction of apoptosis in human HepG2 cells assessed as concentrated chromatin at 2 to 8 uM after 72 hrs by DAPI-staining based fluorescence microscopic analysis; type: functional, cell-based
[7] = Toxicity in zebrafish embryos assessed as effect on morphological changes at 4 uM after 72 hrs; parameters: species or system Danio rerio; settings: in vivo
HepG2 [8] = assay: Induction of cell cycle arrest in human HepG2 cells assessed as accumulation at G1 phase at 8 uM after 72 hrs by PI-staining based flow cytometry (reference value: 66.9%); type: functional
HepG2 [9] = assay: Induction of cell cycle arrest in human HepG2 cells assessed as accumulation at G1 phase at 2 uM after 72 hrs by PI-staining based flow cytometry (reference value: 66.9%); type: functional
MDCK = assay: Cytotoxicity against MDCK cells assessed as reduction in cell viability after 72 hrs by MTT assay; type: cell-based; settings: Canis lupus familiaris
HepG2 [10] = assay: Induction of apoptosis in human HepG2 cells assessed as late apoptotic cells at 12 uM after 24 hrs by AnnexinV-FITC/PI-staining based flow cytometry (reference value: 4.5%); type: functional
HepG2 [11] = assay: Induction of apoptosis in human HepG2 cells assessed as early apoptotic cells at 4 uM after 24 hrs by AnnexinV-FITC/PI-staining based flow cytometry (reference value: 0.5%); type: functional
HepG2 [12] = assay: Induction of morphological changes in human HepG2 cells assessed as cell pyknosis at 8 uM after 72 hrs by giemsa staining based inverted microscopic analysis; type: functional
HepG2 [13] = assay: Antiproliferative activity against human HepG2 cells assessed as reduction in cell viability after 72 hrs by MTT assay; type: functional, cell-based; settings: HepG2, 72 h
HepG2 [14] = assay: Induction of apoptosis in human HepG2 cells assessed as reduction in number of normal cell morphology at 2 to 8 uM after 72 hrs by giemsa staining based inverted microscopic analysis; type: functional
[15] = Selectivity index, ratio of IC50 for MDCK cells to IC50 for human HepG2 cells
HepG2 [16] = assay: Induction of morphological changes in human HepG2 cells assessed as cell fragmentation at 8 uM after 72 hrs by giemsa staining based inverted microscopic analysis; type: functional
HepG2 [17] = assay: Induction of cell cycle arrest in human HepG2 cells assessed as accumulation at S phase at 8 uM after 72 hrs by PI-staining based flow cytometry (reference value: 13.9%); type: functional
[18] = Toxicity in zebrafish embryos assessed as body length at 4 uM after 72 hrs (reference value: 4165.80 +/- 64.98 micrometer); parameters: species or system Danio rerio; settings: in vivo
HepG2 [19] = assay: Induction of cell cycle arrest in human HepG2 cells assessed as accumulation at G2 phase at 2 uM after 72 hrs by PI-staining based flow cytometry (reference value: 19.2%); type: functional
HeLa = assay: Antiproliferative activity against human HeLa cells assessed as reduction in cell viability after 72 hrs by MTT assay; type: functional, cell-based
[20] = Toxicity in zebrafish embryos assessed as malformation rate at 4 uM after 72 hrs (reference value: 0%); parameters: species or system Danio rerio; settings: in vivo
HepG2 [21] = assay: Induction of apoptosis in human HepG2 cells assessed as nuclear fragmentation at 2 to 8 uM after 72 hrs by DAPI-staining based fluorescence microscopic analysis; type: functional, cell-based
HepG2 [22] = assay: Induction of apoptosis in human HepG2 cells assessed as increase in cell disruption up to 8 uM after 72 hrs by DAPI-staining based fluorescence microscopic analysis; type: functional
HepG2 [23] = assay: Induction of cell cycle arrest in human HepG2 cells assessed as accumulation at S phase at 4 uM after 72 hrs by PI-staining based flow cytometry (reference value: 13.9%); type: functional
[24] = Toxicity in zebrafish embryos assessed as spinal cord bending at 4 uM after 72 hrs; parameters: species or system Danio rerio; settings: in vivo
HepG2 [25] = assay: Induction of cell cycle arrest in human HepG2 cells assessed as accumulation at G2 phase at 8 uM after 72 hrs by PI-staining based flow cytometry (reference value: 19.2%); type: functional
HT-29 = assay: Antiproliferative activity against human HT-29 cells assessed as reduction in cell viability after 72 hrs by MTT assay; type: functional, cell-based; settings: HT-29, 72 h
HepG2 [26] = assay: Induction of cell cycle arrest in human HepG2 cells assessed as accumulation at G2 phase at 4 uM after 72 hrs by PI-staining based flow cytometry (reference value: 19.2%); type: functional
HepG2 [27] = assay: Induction of apoptosis in human HepG2 cells assessed as late apoptotic cells at 8 uM after 24 hrs by AnnexinV-FITC/PI-staining based flow cytometry (reference value: 4.5%); type: functional
[28] = Toxicity in zebrafish embryos assessed as mortality rate at 4 uM after 72 hrs (reference value: 3.33 +/- 4.71%); parameters: species or system Danio rerio; settings: in vivo
HepG2 [29] = assay: Induction of cell cycle arrest in human HepG2 cells assessed as accumulation at G1 phase at 4 uM after 72 hrs by PI-staining based flow cytometry (reference value: 66.9%); type: functional

## C=C(C)[C@@H]1CC[C@]2(COC(=O)c3nc(C)c(C)nc3C)CC[C@]3(C)[C@H](CC[C@@H]4[C@@]5(C)CC[C@H](OC(=O)CN)C(C)(C)[C@@H]5CC[C@]43C)[C@@H]12
BGC-823
  pIC50: 5.37
HepG2 [1]
  Activity: 15.4%
HepG2 [2]
  Activity: Active
HepG2 [3]
  Activity: 35.4%
HepG2 [4]
  Activity: 7.3%
HepG2 [5]
  Activity: 14.2%
HepG2 [6]
  Activity: Active
[7]
  Activity: Non-Toxic
HepG2 [8]
  Activity: 81.5%
HepG2 [9]
  Activity: 76.8%
MDCK
  pIC50: 4.79
HepG2 [10]
  Activity: 21.4%
HepG2 [11]
  Activity: 5.5%
HepG2 [12]
  Activity: Active
HepG2 [13]
  pIC50: 5.39
HepG2 [14]
  Activity: Active
[15]
  Ratio IC50: 3.91
HepG2 [16]
  Activity: Active
HepG2 [17]
  Activity: 4.9%
[18]
  Activity: 4140.09 um
HepG2 [19]
  Activity: 15.8%
HeLa
  pIC50: 5.31
[20]
  Activity: 0%
HepG2 [21]
  Activity: Active
HepG2 [22]
  Activity: Active
HepG2 [23]
  Activity: 5.6%
[24]
  Activity: Non-Toxic
HepG2 [25]
  Activity: 13.6%
HT-29
  pIC50: 5.21
HepG2 [26]
  Activity: 14.9%
HepG2 [27]
  Activity: 19.2%
[28]
  mortality at 72 h, 4 µM: 8.33%
HepG2 [29]
  Activity: 79.6%
